Converted amounts (≈) assume the structure as drawn.
Test system: Streptococcus pneumoniae (Chester, ATCC49619)
Test: Broth microdilution MIC assay, Streptococcus pneumoniae
Assay type: cell-based
Conditions: for Antibacterial activity Streptococcus pneumoniae: MIC class score, MIC100, broth microdilution; for MIC: Streptococcus pneumoniae, ATCC49619, read-out: Antibacterial activity, SP (Streptococcus pneumoniae), MIC class

SMILES	Antibacterial activity Streptococcus pneumoniae	MIC
Cc1nc(-c2ccc(-c3cc(C(F)(F)F)cc(C(F)(F)F)c3)o2)[nH]c1-c1ccccc1 [compound 35]	2 (MIC100 of 6-10 μg/ml)	
Cc1[nH]c(-c2cc(C)n(-c3ccc(F)c(F)c3F)c2C)nc1-c1ccccc1 [compound 10]		2 to 5 µg/mL (≈ 5.24 to 13.1 µM)
Cc1nc(-c2ccc(-c3ccc(O)c(C(F)(F)F)c3)o2)[nH]c1-c1ccccc1 [compound 155]	3 (MIC100 of 2-5 μg/ml)	
Cc1nc(-c2ccc(-c3ccc(O)cc3F)o2)[nH]c1-c1ccccc1 [compound 168]	3 (MIC100 of 2-5 μg/ml)	
Cc1[nH]c(-c2cnn(-c3ccccc3)n2)nc1-c1ccccc1 [compound 73]	2 (MIC100 of 6-10 μg/ml)	6 to 10 µg/mL (≈ 19.9 to 33.2 µM)
CCc1ccc(-c2ccc(-c3nc(-c4ccccc4)c(C)[nH]3)o2)cc1 [compound 53]	3 (MIC100 of 2-5 μg/ml)	2 to 5 µg/mL (≈ 6.09 to 15.2 µM)
Cc1nc(-c2ccc(-c3ccccc3N(C)C)o2)[nH]c1-c1ccccc1 [compound 71]	3 (MIC100 of 2-5 μg/ml)	2 to 5 µg/mL (≈ 5.82 to 14.6 µM)
Cc1[nH]c(-c2csc(-c3cccc(Br)c3)n2)nc1-c1ccccc1 [compound 14]		2 to 5 µg/mL (≈ 5.05 to 12.6 µM)
Cc1nc(-c2ccc(-c3ccc(O)c(Cl)c3)o2)[nH]c1-c1ccccc1 [compound 157]	3 (MIC100 of 2-5 μg/ml)	
Cc1[nH]c(-c2cc(C)n(-c3ccc4c(c3)CCC4)c2C)nc1-c1ccccc1 [compound 59]		2 to 5 µg/mL (≈ 5.44 to 13.6 µM)
FC(F)(F)Oc1ccccc1-c1ccc(-c2ncc(-c3ccccc3)[nH]2)o1 [compound 63]	3 (MIC100 of 2-5 μg/ml)	2 to 5 µg/mL (≈ 5.4 to 13.5 µM)
Cc1ccc(-c2ncc(-c3nc(-c4ccccc4)c(C)[nH]3)s2)cc1 [compound 55]		2 to 5 µg/mL (≈ 6.03 to 15.1 µM)
Cc1[nH]c(-c2ccc(-c3ccccc3C(F)(F)F)o2)nc1-c1ccc(Br)cc1 [compound 25]	3 (MIC100 of 2-5 μg/ml)	2 to 5 µg/mL (≈ 4.47 to 11.2 µM)
Cc1[nH]c(-c2ccc(-c3ccccc3OC(F)(F)F)o2)nc1-c1ccc(C(F)(F)F)cc1 [compound 26]		2 to 5 µg/mL (≈ 4.42 to 11.1 µM)
Cc1ccc(-c2ccc(-c3nc(-c4ccccc4)c(C)[nH]3)o2)cc1 [compound 52]		6 to 10 µg/mL (≈ 19.1 to 31.8 µM)
Cc1nc(-c2ccc(-c3ccccc3Br)o2)[nH]c1C [compound 84]	2 (MIC100 of 6-10 μg/ml)	
Cc1cccc(C)c1-c1ccc(-c2nc(C)c(-c3ccccc3)[nH]2)o1 [compound 62]	3 (MIC100 of 2-5 μg/ml)	2 to 5 µg/mL (≈ 6.09 to 15.2 µM)
Cc1ccc(-c2nc(-c3nc(-c4ccccc4)c(C)[nH]3)co2)cc1 [compound 57]	3 (MIC100 of 2-5 μg/ml)	2 to 5 µg/mL (≈ 6.34 to 15.9 µM)
Cc1[nH]c(-c2ccc(-c3cccc(Cl)c3)s2)nc1-c1ccccc1 [compound 12]		2 to 5 µg/mL (≈ 5.7 to 14.3 µM)
Cc1nc(-c2ccc(-c3cccc(F)c3)o2)[nH]c1-c1ccccc1 [compound 146]	3 (MIC100 of 2-5 μg/ml)	
Cc1nc(-c2ccc(-c3ccc(Cl)cc3)o2)[nH]c1-c1ccccc1 [compound 5]		< 1 µg/mL
Cc1nc(-c2ccc(-c3ccc(F)c(F)c3)o2)[nH]c1-c1ccccc1 [compound 153]	3 (MIC100 of 2-5 μg/ml)	
Cc1nc(-c2ccc(-c3ccc4cc[nH]c4c3)o2)[nH]c1-c1ccccc1 [compound 152]	3 (MIC100 of 2-5 μg/ml)	
Cc1ccc(-c2ccc(-c3nc(-c4ccccc4)c(C)[nH]3)s2)cc1 [compound 54]	2 (MIC100 of 6-10 μg/ml)	6 to 10 µg/mL (≈ 18.2 to 30.3 µM)
Cc1[nH]c(-c2ccc(-c3c(F)cccc3F)o2)nc1-c1ccccc1 [compound 163]	3 (MIC100 of 2-5 μg/ml)	

SMILES	Antibacterial activity Streptococcus pneumoniae	MIC
Cc1cc(F)ccc1-c1ccc(-c2nc(-c3ccccc3)c(C)[nH]2)o1 [compound 164]	3 (MIC100 of 2-5 μg/ml)	
Cc1nc(-c2ccc(-c3ccc(F)cc3)o2)[nH]c1-c1ccccc1 [compound 148]	3 (MIC100 of 2-5 μg/ml)	
COc1ccc(-c2ccc(-c3nc(C)c(-c4ccccc4)[nH]3)o2)c(C(F)(F)F)c1 [compound 31]		< 1 µg/mL
Cc1nc(-c2ccc(-c3cc(C(F)(F)F)ccc3Cl)o2)[nH]c1-c1ccccc1 [compound 40]	2 (MIC100 of 6-10 μg/ml)	6 to 10 µg/mL (≈ 14.9 to 24.8 µM)
Cc1[nH]c(-c2cc(C)n(-c3ccc(F)cc3F)c2C)nc1-c1ccccc1 [compound 9]		2 to 5 µg/mL (≈ 5.5 to 13.8 µM)
CCc1ccc(-c2[nH]c(-c3ccc(-c4ccccc4C(F)(F)F)o3)nc2C)cc1 [compound 28]		2 to 5 µg/mL (≈ 5.05 to 12.6 µM)
Cc1[nH]c(-c2ccc(-c3ccc(F)cc3)s2)nc1-c1ccccc1 [compound 7]		2 to 5 µg/mL (≈ 5.98 to 15 µM)
Cc1ccc(-c2nc(-c3nc(-c4ccccc4)c(C)[nH]3)cs2)cc1 [compound 56]		2 to 5 µg/mL (≈ 6.03 to 15.1 µM)
Cc1nc(-c2ccc(-c3ccc4[nH]ccc4c3)o2)[nH]c1-c1ccccc1 [compound 144]	3 (MIC100 of 2-5 μg/ml)	
Cc1nc(-c2ccc(-c3cc(F)ccc3C(F)(F)F)o2)[nH]c1-c1ccccc1 [31a]	3 (MIC100 of 2-5 μg/ml)	
Cc1[nH]c(-c2ccc(-c3ccccc3)s2)nc1-c1ccccc1 [compound 74]		2 to 5 µg/mL (≈ 6.32 to 15.8 µM)
Cc1[nH]c(-c2csc(-c3ccc(F)cc3)n2)nc1-c1ccccc1 [compound 11]		2 to 5 µg/mL (≈ 5.96 to 14.9 µM)
Cc1nc(-c2ccc(-c3ccccc3C(F)(F)F)o2)[nH]c1-c1ccccc1Cl [compound 20]		< 1 µg/mL
Cc1[nH]c(-c2ccc(-c3ccc(C(C)(C)C)cc3)o2)nc1-c1ccccc1 [compound 165]	2 (MIC100 of 6-10 μg/ml)	
Cc1nc(-c2ccc(-c3ccc(O)cc3C(F)(F)F)o2)[nH]c1-c1ccccc1 [compound 139]	3 (MIC100 of 2-5 μg/ml)	
Cc1nc(-c2ccc(-c3ccccc3Cl)o2)[nH]c1C [compound 86]	3 (MIC100 of 2-5 μg/ml)	
Cc1nc(-c2ccc(-c3ccc(O)cc3Cl)o2)[nH]c1-c1ccccc1 [compound 158]	3 (MIC100 of 2-5 μg/ml)	
C#Cc1ccc(-c2[nH]c(-c3ccc(-c4ccccc4C(F)(F)F)o3)nc2C)cc1 [compound 27]		< 1 µg/mL
Cc1nc(-c2ccc(/C=C/c3ccccc3)o2)[nH]c1-c1ccccc1 [compound 143]	3 (MIC100 of 2-5 μg/ml)	
Cc1[nH]c(-c2ccc(-c3ccccc3F)o2)nc1-c1ccccc1 [compound 162]	3 (MIC100 of 2-5 μg/ml)	
Cc1nc(-c2ccc(-c3ccc4occc4c3)o2)[nH]c1-c1ccccc1 [compound 159]	3 (MIC100 of 2-5 μg/ml)	
Cc1nc(-c2ccc(-c3cccc4[nH]ccc34)o2)[nH]c1-c1ccccc1 [compound 138]	2 (MIC100 of 6-10 μg/ml)	
Cc1nc(-c2ccc(-c3cccc4cc[nH]c34)o2)[nH]c1-c1ccccc1 [compound 161]	3 (MIC100 of 2-5 μg/ml)	
Cc1ccccc1-c1ccc(-c2nc(C)c(-c3ccccc3)[nH]2)o1 [compound 61]	3 (MIC100 of 2-5 μg/ml)	2 to 5 µg/mL (≈ 6.36 to 15.9 µM)
Cc1[nH]c(-c2cc(C)n(-c3ccc(Cl)cc3)c2C)nc1-c1ccccc1 [compound 8]	3 (MIC100 of 2-5 μg/ml)	2 to 5 µg/mL (≈ 5.53 to 13.8 µM)

Reference: patent US10456379B2, “Imidazole-based antimicrobial agents” (priority 2014, dated 2019)
